Assay [1] addresses muscarinic cholinergic receptor. The experiment in a line: [3H] Quinuclidinyl Benzilate (3H-QNB) Binding Assay. Conditions: pH 7.4. The arrangement: species or system rat.
Assay [2] has the same target. Kind of assay: [3H]-Cis-methyldioxolane (3H-CD) Binding Assay (High Affinity). Conditions: rat cerebral cortex, 1.0 nM 3H-CD, 25° C., 120 minutes, pH 7.4.
The subject of the next assay is aged monkey. Conditions: aged monkeys; cited from earlier work.
The next assay relates to SDAT patients. Conditions: cited from earlier work.
[3] abbreviates: rat cerebral cortex, 0.25 nM 3H-QNB, 25° C., 120 minutes.

Molecules are shown by their SMILES.

One may read the IC50 as the concentration that gives 50% inhibition. With `CO[C@H]1CCN(CC#CCN2CCCC2)C1=O` [(S)-3-Methoxy-1-[4-(1-pyrrolidinyl)-2-butynyl]-2-pyrrolidinone], the values for the IC50 in assay [1] and in assay [2] were 433 µM and 1.17 µM, respectively.

In the case of `CC(C)(C)[Si](C)(C)O[C@H]1CCN(CC#CCN2CCCCC2)C1=O` [(S)-3-[[(1,1-Dimethylethyl)dimethylsilyl]oxy]-1-[4-(1-piperidinyl)-2-butynyl]-2-pyrrolidinone], the values for the IC50 in assay [1] and in assay [2] were 24 µM and 0.161 µM, respectively.

In the case of `CNC(=O)O[C@H]1CCN(CC#CCN2CCCCC2)C1=O` [(S)-3-[[(Methylamino)carbonyl]oxy]-1-[4-(1-piperidinyl)-2-butynyl]-2-pyrrolidinone], the results for the 50% inhibitory concentration (IC50) in assay [1] (setting [3]) and in assay [2] were 744 µM and 87 µM, respectively.

Regarding `CC(=O)O[C@H]1CC(=O)N(CC#CCN2CCCCC2)C1` [(S)-4-(Acetyloxy)-1-[4-(1-piperidinyl)-2-butynyl]-2-pyrrolidinone], the IC50 in assay [1] worked out at 159 µM; in assay [2], 9.57 µM.

As for `CC(=O)O[C@H]1CC(=O)N(CC#CCN2CCCC2)C1` [(S)-4-(Acetyloxy)-1-[4-(1-pyrrolidinyl)-2-butynyl]-2-pyrrolidinone], the IC50 in assay [1] stood at 112 µM; in assay [2], 6.11 µM.

As for `CC(=O)O[C@H]1CC(=O)N(CC#CCN(C)C)C1` [(S)-4-(Acetyloxy)-1-[4-(dimethylamino)-2-butynyl]-2-pyrrolidinone], the half-inhibitory concentration (IC50) in assay [1] is 1350 µM; in assay [2] it was 41.9 µM.

`O=C1C[C@H](O)CN1CC#CCN1CCCCC1` [(S)-4-Hydroxy-1-[4-(1-piperidinyl)-2-butynyl]-2-pyrrolidinone]: the half-inhibitory concentration (IC50) in assay [1] worked out at 200 µM; in assay [2] it was 36.1 µM.

Regarding `O=C1C[C@H](O)CN1CC#CCN1CCCC1` [(S)-4-Hydroxy-1-[4-(1-pyrrolidinyl)-2-butynyl]-2-pyrrolidinone], the half-inhibitory concentration (IC50) worked out at 270 µM in assay [1] and 4.91 µM in assay [2].

On to `CC(C)(C)[Si](C)(C)O[C@H]1CC(=O)N(CC#CCN2CCCC2)C1` [(S)-4-[[(1,1-Dimethylethyl)dimethylsilyl]oxy]-1-[4-(1-pyrrolidinyl)-2-butynyl]-2-pyrrolidinone], for which the figures for the IC50 in assay [1] and in assay [2] were 23 µM and 9.57 µM, respectively.

As for `CC(=O)S[C@H]1CCN(CC#CCN2CCCC2)C1=O` [(S)-S-(2-Oxo-1-[4-(1-pyrrolidinyl)-2-butynyl]-3-pyrrolidinyl]ethanethioic acid ester], the results for the half-maximal inhibitory concentration (IC50) in assay [1] and in assay [2] were 4 µM and 0.07 µM, respectively.

Consider `CC(=O)S[C@H]1CCN(CC#CCN(C)C)C1=O` [(S)-S-[1-[4-(Dimethylamino)-2-butynyl]-2-oxo-3-pyrrolidinyl]ethanethioic acid ester], for which the IC50 in assay [1] came out at 40 µM; in assay [2], 1.53 µM.

Consider `CC(=O)S[C@H]1CCN(CC#CCN2CCCCC2)C1=O` [(S)-S-[2-Oxo-1-[4-(1-piperidinyl)-2-butynyl]-3-pyrrolidinyl]ethanethioic acid ester], for which the results for the IC50 in assay [1] and in assay [2] were 14 µM and 2.43 µM, respectively.

As for `C[N+](C)(C)CC#CCN1CCCC1=O` [N,N,N-Trimethyl-4-(2-oxo-1-pyrrolidinyl)-2-butyn-1-aminium iodide, reference compound], the IC50 in assay [1] worked out at 18 µM; in assay [2], 0.003 µM.

For `O=C1[C@H](SS[C@@H]2CCN(CC#CCN3CCCCC3)C2=O)CCN1CC#CCN1CCCCC1` [[R-(R*,R*)]-3,3'-dithiobis[1-[4-(1-piperidinyl)-2-butynyl]]-2-pyrrolidinone], the 50% inhibitory concentration (IC50) in assay [1] (setting [3]) is 9 µM; in assay [2], 1.83 µM.

As for `COC(=O)C1=CCCN(C)C1` [arecoline], the improvement in performance result in the assay with aged monkey was “significant improvement in performance”. Besides, in the assay on SDAT patients, the “improvement compared to physostigmine” value is given as “more-consistent improvement when compared to the anticholinesterase inhibitor physostigmine”.

As for `O=C1CCCN1CC#CCN1CCCC1` [oxotremorine], in the assay with aged monkey, the improvement in performance result was “significant improvement in performance”.

The record behind these values is patent US4937235A, “3- or 4-substituted oxotremorine derivatives” (American Cyanamid Company, priority 1989, dated 1990).
